Read-outs that look alike come from different tables or passages of the source.
Test system: cultured human mast cells (CHMC)
Assay: CHMC low cell density IgE activation: tryptase assay
Format: cell-based
Details: low cell density, IgE activation
In short: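 Fluorogenic readout of tryptase released into the supernatant (30 min substrate incubation, room temperature) measures degranulation. Cells were plated at low density (1000–1500/well, varied by donor) and triggered with anti-IgE for 30 min at 37 °C.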

[1] = 3 pt, read-out: LD Tryptase, CHMC, IgE, 3 pt
[2] = 8 pt, read-out: LD Tryptase, CHMC, IgE, 8 pt
[3] = Homo sapiens, Mast cell, 3 pt, read-out: LD Tryptase, CHMC, IgE, 3 pt
[4] = Homo sapiens, Mast cell, 8 pt, read-out: LD Tryptase, CHMC, IgE, 8 pt

Structure (SMILES)	IC50 [3]	IC50 [4]	further results
CCOCCCn1ncc2cc(Nc3ncc(F)c(Nc4ccc5c(n4)NC(=O)C(C)(C)O5)n3)ccc21 [Compound 875, N4-(2,2-Dimethyl-3-oxo-4H-5-pyrid[1,4]oxazin-6-yl)-N2-[1-(3-ethoxypropyl)indazol-5-yl]-5-fluoro-2,4-pyrimidinediamine]			IC50 [1]: < 10 µM; IC50 [2]: < 10 µM
COc1ccc(Nc2ncc(F)c(Nc3ccc(OC)c(Cl)n3)n2)cc1OC [Compound 877, N4-(2-Chloro-3-methoxypyrid-6-yl)-N2-(3,4-dimethoxyphenyl)-5-fluoro-2,4-pyrimidinediamine]	< 10 µM		
COc1ccc(Nc2nc(Nc3cc(C)cc(C)c3)ncc2F)nc1Cl [Compound 879, N4-(2-Chloro-3-methoxypyrid-6-yl)-N2-(3,5-dimethylphenyl)-5-fluoro-2,4-pyrimidinediamine]	< 10 µM	< 10 µM	
CNC(=O)COc1cccc(Nc2ncc(F)c(Nc3ccc(OC)c(Cl)n3)n2)c1 [Compound 880, N4-(2-Chloro-3-methoxypyrid-6-yl)-5-fluoro-N2-[3-(N-methylamino)carbonylmethyleneoxyphenyl]-2,4-pyrimidinediamine]			IC50 [1]: < 10 µM; IC50 [2]: < 10 µM
COc1ccc(Nc2nc(Nc3ccc4[nH]c(C(F)(F)F)nc4c3)ncc2F)nc1Cl [Compound 883]	< 10 µM		
COc1ccc(Nc2nc(Nc3ccc4nc(C)[nH]c4c3)ncc2F)nc1Cl [Compound 884]	< 10 µM		
COc1ccc(Nc2nc(Nc3ccc4c(cnn4C)c3)ncc2F)nc1Cl [Compound 886]	> 10 µM		
CCn1ncc2ccc(Nc3ncc(F)c(Nc4ccc(OC)c(Cl)n4)n3)cc21 [Compound 887]	< 10 µM		
COc1ccc(Nc2nc(Nc3ccc4cnn(C(C)C)c4c3)ncc2F)nc1Cl [Compound 888]	< 10 µM		
COc1ccc(Nc2nc(Nc3ccc4c(cnn4CCCNC(=O)C4CC4)c3)ncc2F)nc1Cl [Compound 891]	< 10 µM		
COc1ccc(Nc2nc(Nc3ccc4c(cnn4CCCNC(=O)C(C)(C)C)c3)ncc2F)nc1Cl [Compound 892]	< 10 µM		
COc1ccc(Nc2nc(Nc3ccc4c(cnn4CCCNC(=O)C(C)C)c3)ncc2F)nc1Cl [Compound 893]	< 10 µM		
Cc1nc2cc(Nc3ncc(F)c(Nc4ccc(Cl)c(Cl)c4)n3)ccc2n1C [Compound 894]	< 10 µM		
Cc1nc2cc(Nc3ncc(F)c(Nc4ccc5c(c4)NC(=O)C(C)(C)O5)n3)ccc2n1C [Compound 896]	< 10 µM	< 10 µM	
Cc1nc2cc(Nc3ncc(F)c(Nc4ccc5c(n4)NC(=O)C(C)(C)O5)n3)ccc2n1C [Compound 898, N2-(1,2-Dimethylbenzimidazol-5-yl)-N4-(2,2-dimethyl-3-oxo-4H-5-pyrid[1,4]oxazin-6-yl)-5-Fluoro-2,4-pyrimidinediamine]	< 10 µM	< 10 µM	
Cn1c(=O)[nH]c2cc(Nc3ncc(F)c(Nc4ccc5c(c4)NC(=O)C(C)(C)O5)n3)ccc21 [Compound 906]	< 10 µM	< 10 µM	
C[C@@H]1Oc2ccc(Nc3nc(Nc4ccc5c(c4)[nH]c(=O)n5C)ncc3F)cc2NC1=O [Compound 907]	< 10 µM	< 10 µM	

Structure (SMILES)	IC50 [3]	IC50 [4]	further results
Cn1c(=O)[nH]c2cc(Nc3ncc(F)c(Nc4ccc5c(n4)NC(=O)C(C)(C)O5)n3)ccc21 [Compound 908, N4-(2,2-Dimethyl-3-oxo-4H-5-pyrid[1,4]oxazin-6-yl)-N2-(2,3-dihydro-1-methyl-2-oxo-benzimidazol-5-yl)-5-fluoro-2,4-pyrimidinediamine]			IC50 [1]: < 10 µM; IC50 [2]: < 10 µM
Cc1nc2ccc(Nc3ncc(F)c(Nc4ccc5c(c4)NC(=O)C(C)S5(=O)=O)n3)cc2[nH]1 (stereo not drawn) [Compound 909]	< 10 µM		
CC1C(=O)Nc2cc(Nc3nc(Nc4ccc5[nH]c(C(F)(F)F)nc5c4)ncc3F)ccc2S1(=O)=O (stereo not drawn) [Compound 910, 5-Fluoro-N4-(2-methyl-1,1,3-trioxo-2H,4H-benzo[1,4]thiazin-6-yl)-N2-(2-trifluoromethyl-1H-benzimidazol-5-yl)-2,4-pyrimidinediamine]	< 10 µM		
Cn1c(C(F)(F)F)nc2cc(Nc3ncc(F)c(Nc4ccc(Cl)c(Cl)c4)n3)ccc21 [Compound 911]		< 10 µM	
COc1ccc(Nc2nc(Nc3ccc4c(c3)nc(C(F)(F)F)n4C)ncc2F)cc1Cl [Compound 912]		< 10 µM	
Cn1c(C(F)(F)F)nc2cc(Nc3ncc(F)c(Nc4ccc5c(c4)NC(=O)C(C)(C)O5)n3)ccc21 [Compound 913]			IC50 [2]: < 10 µM
C[C@@H]1Oc2ccc(Nc3nc(Nc4ccc5c(c4)nc(C(F)(F)F)n5C)ncc3F)cc2NC1=O [Compound 914]		< 10 µM	
OCCn1c(C(F)(F)F)nc2cc(Nc3ncc(F)c(Nc4ccc(Cl)c(Cl)c4)n3)ccc21 [Compound 916]			IC50 [2]: < 10 µM
CC1(C)Oc2ccc(Nc3nc(N)nc(-c4ccc5c(c4)nc(C(F)(F)F)n5CCO)c3F)cc2NC1=O [Compound 918]	< 10 µM	< 10 µM	
C[C@@H]1Oc2ccc(Nc3nc(N)nc(-c4ccc5c(c4)nc(C(F)(F)F)n5CCO)c3F)cc2NC1=O [Compound 919]	< 10 µM	< 10 µM	
CC1(C)Oc2ccc(Nc3nc(Nc4ccc5oncc5c4)ncc3F)nc2NC1=O [Compound 928, N2-(1,2-Benzisoxazol-5-yl)-N4-(2,2-dimethyl-3-oxo-4H-5-pyrido[1,4]oxazin-6-yl)-5-fluoro-2,4-pyrimidinediamine]			IC50 [2]: < 10 µM
CCn1c(C)nc2cc(Nc3ncc(F)c(Nc4ccc(OC)c(Cl)c4)n3)ccc21 [Compound 933]	< 10 µM		
CCn1c(C)nc2cc(Nc3ncc(F)c(Nc4ccc5c(c4)NC(=O)C(C)(C)O5)n3)ccc21 [Compound 934]	< 10 µM		
CCn1c(C)nc2cc(Nc3ncc(F)c(Nc4ccc5c(c4)NC(=O)[C@H](C)O5)n3)ccc21 [Compound 935]	< 10 µM	< 10 µM	
CCn1c(C)nc2cc(Nc3ncc(F)c(Nc4ccc5c(n4)NC(=O)C(C)(C)O5)n3)ccc21 [Compound 936, N4-(2,2-Dimethyl-3-oxo-4H-5-pyrido[1,4]oxazin-6-yl)-N2-(1-ethyl-2-methylbenzimidazol-5-yl)-5-fluoro-2,4-pyrimidinediamine]			IC50 [1]: < 10 µM
CC1(C)Oc2ccc(Nc3nc(Nc4ccc5c(c4)nc(C(F)(F)F)n5CCCO)ncc3F)cc2NC1=O [Compound 939]	< 10 µM	< 10 µM	

Further lines, with some results ahead:

IC50 [3]	IC50 [4]	Structure (SMILES)	further results
< 10 µM	< 10 µM	COc1ccc(Nc2nc(Nc3cc(OC)c(OC)c(OC)c3)ncc2F)nc1Cl [Compound 876, N4-(2-Chloro-3-methoxypyrid-6-yl)-5-fluoro-N2-(3,4,5-trimethoxyphenyl)-2,4-pyrimidinediamine]	
> 10 µM		COc1ccc(Nc2ncc(F)c(Nc3ccc(OC)c(Cl)n3)n2)cc1Cl [Compound 878, N2-(3-Chloro-4-methoxyphenyl)-N4-(2-chloro-3-methoxypyrid-6-yl)-5-fluoro-2,4-pyrimidinediamine]	
< 10 µM		COc1ccc(Nc2nc(Nc3ccc4cn[nH]c4c3)ncc2F)nc1Cl [Compound 882]	
< 10 µM		COc1ccc(Nc2nc(Nc3ccc4cnn(C)c4c3)ncc2F)nc1Cl [Compound 885]	
< 10 µM		COc1ccc(Nc2nc(Nc3ccc4c(c3)NC(=O)C(C)(C)O4)ncc2F)nc1Cl [Compound 889]	
< 10 µM		COc1ccc(Nc2nc(Nc3ccc4c(cnn4CCCNC(C)=O)c3)ncc2F)nc1Cl [Compound 890]	
< 10 µM		COc1ccc(Nc2nc(Nc3ccc4c(c3)nc(C)n4C)ncc2F)cc1Cl [Compound 895]	
< 10 µM	< 10 µM	Cc1nc2cc(Nc3ncc(F)c(Nc4ccc5c(c4)NC(=O)[C@H](C)O5)n3)ccc2n1C [Compound 897]	
< 10 µM	< 10 µM	Cc1nc2cc(Nc3ncc(F)c(Nc4ccc(Cl)c(Cl)c4)n3)ccc2n1CCO [Compound 899]	
< 10 µM		COc1ccc(Nc2nc(Nc3ccc4c(c3)nc(C)n4CCO)ncc2F)cc1Cl [Compound 900]	
< 10 µM	< 10 µM	Cc1nc2cc(Nc3ncc(F)c(Nc4ccc5c(c4)NC(=O)C(C)(C)O5)n3)ccc2n1CCO [Compound 901]	
	< 10 µM	Cc1nc2cc(Nc3ncc(F)c(Nc4ccc5c(c4)NC(=O)[C@H](C)O5)n3)ccc2n1CCO [Compound 902]	
	< 10 µM	Cc1nc2cc(Nc3ncc(F)c(Nc4ccc5c(n4)NC(=O)C(C)(C)O5)n3)ccc2n1CCO [Compound 903, N4-(2,2-Dimethyl-3-oxo-4H-5-pyrid[1,4]oxazin-6-yl)-5-fluoro-N2-[1-(2-hydroxyethyl)-2-methylbenzimidazol-5-yl)-2,4-pyrimidinediamine]	
> 10 µM	> 10 µM	Cn1c(=O)[nH]c2cc(Nc3ncc(F)c(Nc4ccc(Cl)c(Cl)c4)n3)ccc21 [Compound 904]	
< 10 µM	< 10 µM	COc1ccc(Nc2nc(Nc3ccc4c(c3)[nH]c(=O)n4C)ncc2F)cc1Cl [Compound 905]	
	< 10 µM	COc1ccc(Nc2nc(N)nc(-c3ccc4c(c3)nc(C(F)(F)F)n4CCO)c2F)cc1Cl [Compound 917]	
< 10 µM		COc1ccc(Nc2nc(Nc3ccc4oncc4c3)ncc2F)cc1Cl [Compound 925]	
	< 10 µM	CC1(C)Oc2ccc(Nc3nc(Nc4ccc5oncc5c4)ncc3F)cc2NC1=O [Compound 926]	
	< 10 µM	C[C@@H]1Oc2ccc(Nc3nc(Nc4ccc5oncc5c4)ncc3F)cc2NC1=O [Compound 927]	
< 10 µM		CC1(C)C(=O)Nc2cc(Nc3nc(Nc4ccc5oncc5c4)ncc3F)ccc2S1(=O)=O [Compound 930]	
> 10 µM		CCn1c(C)nc2cc(Nc3ncc(F)c(Nc4ccc(Cl)c(Cl)c4)n3)ccc21 [Compound 932]	
< 10 µM	< 10 µM	OCCCn1c(C(F)(F)F)nc2cc(Nc3ncc(F)c(Nc4ccc(Cl)c(Cl)c4)n3)ccc21 [Compound 937]	
< 10 µM		COc1ccc(Nc2nc(Nc3ccc4c(c3)nc(C(F)(F)F)n4CCCO)ncc2F)cc1Cl [Compound 938]	

Source: patent US20220073536A1 (Rigel Pharmaceuticals, Inc., priority 2003, published 2022)
